Data from patent US10919891B2, “Heterocyclic compound” (TAKEDA PHARMACEUTICAL COMPANY LIMITED, priority 2017, dated 2021).

Legend:
[1] = target: T1, CYP3A4 (Homo sapiens, UniProt P08684); assay: CYP3A4 TDI (human liver microsomes, testosterone 6β-hydroxylation); assay type: in vitro ADME; settings: test compound 30 μM, 60 min vs 0 min preincubation with NADPH, 37° C.
T1 construct: Human liver microsomes purchased from XenoTech, LLC (Lenexa, Kans.) was used; tissue XenoTech, LLC; host or cells: human liver microsomes
Experimental: Human liver microsomes purchased from XenoTech, LLC (Lenexa, Kans.) was used. Test compounds were dissolved in acetonitrile, acetonitrile/methanol (1:1, v/v) or DMSO/acetonitrile (1:4, v/v). To a human liver microsomes solution adjusted with phosphate buffer (pH 7.4), the test compound solution was added to obtain a human liver microsomes reaction solution having the test compound concentration of 30 μM. To the human liver microsome reaction solution, NADPH production system was added, and the mixture was preincubated at 37° C. for 0 minutes or 60 minutes. After the preincubation, probe substrate testosterone was added, and testosterone metabolite 6β-hydroxytestosterone was analyzed by LC/MS/MS to evaluate CYP3A4 enzymatic activity.
The enzyme activity (% of control) at each preincubation point was calculated from the following equation: % of control=[(activity of test compound addition group)/(activity of test compound non-addition group)]×100.
The remaining activity (% remaining) after 60 minutes of preincubation was calculated from the following equation: Remaining activity (%)=[activity after 60 minutes (% of control60 min)]/[activity after 0 minutes (% of control0 min)]×100.

[2] = system: CSQ-Tg mice; assay: Effect on survival rate of heart failure animal model; assay type: in vivo
Text: In this Test Example, effect of the compound of Example 1 on survival rate was examined using heart failure animal models. The mice reported in Larry R. Jones et al., J. Clin. Invest. 101: 1385-1393, 1998 were obtained from the University of Pennsylvania and bred in-house, which were cardiac-specific transgenic mice of Calsequestrin (CSQ)(CSQ-Tg mice) as the heart failure animal models. In the study, female mice were used, and dosing was started from the age of 5 weeks. The animals were fed with chow (CE-2, CLEA Japan, Inc.) and tap water under the condition of room temperature of 20 to 26° C., humidity of 40 to 70%, and lighting time of 12 hours/day (7:00 to 19:00). As already reported, in the CSQ-Tg mice, Ca^2+ intracellular release was suppressed, myocardial contraction was reduced, cardiac output was decreased, and cardiac hypertrophy and heart failure were developed.
To 5-week old female CSQ-Tg mice, the compound of Example 1 was orally administered at a dose of 10 mg/kg bodyweight/day with a frequency of once daily (QD) for 47 days (n=24). While, to the control group, vehicle (0.5% methylcellulose aqueous solution) was administered (n=24).
To 5-week old female CSQ-Tg mice, the compound of Example 1 was orally administered at a dose of 10 mg/kg bodyweight/day in combination with candesartan cilexetil (1 mg/kg bodyweight/day) with a frequency of once daily (QD) for 68 days (n=18). […]

T1 sequence (P08684 whole entry): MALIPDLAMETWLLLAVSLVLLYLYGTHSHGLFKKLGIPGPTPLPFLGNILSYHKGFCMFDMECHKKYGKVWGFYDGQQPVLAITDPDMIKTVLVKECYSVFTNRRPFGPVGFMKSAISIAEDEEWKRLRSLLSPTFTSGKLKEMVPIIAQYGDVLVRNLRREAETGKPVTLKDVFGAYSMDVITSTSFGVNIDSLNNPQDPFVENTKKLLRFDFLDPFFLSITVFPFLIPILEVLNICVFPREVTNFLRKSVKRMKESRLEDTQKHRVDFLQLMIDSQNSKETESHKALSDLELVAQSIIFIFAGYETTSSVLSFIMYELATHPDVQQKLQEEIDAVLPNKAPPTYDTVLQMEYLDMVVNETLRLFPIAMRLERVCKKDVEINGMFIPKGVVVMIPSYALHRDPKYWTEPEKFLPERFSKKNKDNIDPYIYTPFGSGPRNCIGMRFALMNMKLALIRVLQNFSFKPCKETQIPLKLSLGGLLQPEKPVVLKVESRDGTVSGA

CC1(C)C[C@H](c2ccccc2)Nc2c(C(=O)N3C[C@@H]4C[C@]4(c4ccc(Cl)c(Cl)c4)C3)cnn21 [Example 1, ((1S,5R)-1-(3,4-Dichlorophenyl)-3-azabicyclo[3.1.0]hex-3-yl)((5R)-7,7-dimethyl-5-phenyl-4,5,6,7-tetrahydropyrazolo[1,5-a]pyrimidin-3-yl)methanone]
Remaining Activity (%) [1]: 86.0% | Survival rates, log-rank test p ([2]; 10 mg/kg bodyweight/day co-administered with candesartan cilexetil (1 mg/kg bodyweight/day) QD 68 days vs candesartan cilexetil mono-administration (FIG. 2)): < 0.001 | Survival rates, log-rank test p ([2]; 10 mg/kg bodyweight/day oral QD for 47 days vs vehicle administration group (FIG. 1)): < 0.025
